Assay results published in US7402548B2, “Benzoxazole compounds, process for producing the same and herbicides” (Kyoyu Agri Co., Ltd., priority 2000, dated 2008).

Columns and labels:
wheat [1] = assay: Foliar spread test for upland field; assay type: in vivo; design: key: 0 = normal development, 5 = all killed (6 ranks vs. untreated); settings: foliar spray, 500 ppm, 3 weeks, glass house 25° C.
Outline: (§1)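 Scores on a 0–5 scale (0 normal development, 5 all killed), relative to untreated controls, were taken 3 weeks post-treatment in a 25 °C glass house. Treatment was a uniform foliar spray at 500 ppm (0.5% surfactant) onto roughly 2-week-old soil-grown plants.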

corn [2] = assay: Foliar spread test for upland field; assay type: in vivo; design: key: 0 = normal development, 5 = all killed (6 ranks vs. untreated); settings: foliar spray, 500 ppm, 3 weeks, glass house 25° C.
Outline: as §1

sugar beat [3] = assay: Foliar spread test for upland field; assay type: in vivo; design: key: 0 = normal development, 5 = all killed (6 ranks vs. untreated); settings: foliar spray, 500 ppm, 3 weeks, glass house 25° C.
Outline: as §1

solgum [4] = assay: Foliar spread test for upland field; assay type: in vivo; design: key: 0 = normal development, 5 = all killed (6 ranks vs. untreated); settings: foliar spray, 500 ppm, 3 weeks, glass house 25° C.
Outline: as §1

cotton = assay: Foliar spread test for upland field; assay type: in vivo; design: key: 0 = normal development, 5 = all killed (6 ranks vs. untreated); settings: foliar spray, 500 ppm, 3 weeks, glass house 25° C.
Outline: as §1

soybean [5] = assay: Foliar spread test for upland field; assay type: in vivo; design: key: 0 = normal development, 5 = all killed (6 ranks vs. untreated); settings: foliar spray, 500 ppm, 3 weeks, glass house 25° C.
Outline: as §1

annual bluegrass [6] = assay: Foliar spread test for upland field; assay type: in vivo, Poa annua; design: key: 0 = normal development, 5 = all killed (6 ranks vs. untreated); settings: foliar spray, 500 ppm, 3 weeks, glass house 25° C.
Outline: as §1

Large crabgrass [7] = assay: Soil treatment test for upland field; assay type: in vivo, Digitaria adscendens; design: key: 0 = normal development, 5 = all killed; settings: 500 g/ha, 3 weeks, glass house 25° C.
Outline: (§2)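 Read-out is a six-rank visual damage score, from 0 for normal development to 5 for all plants killed, relative to untreated pots. It is taken 3 weeks after the compound, as wettable powder at 500 g/ha, is sprayed onto freshly seeded alluvial soil.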

annual bluegrass [8] = assay: Soil treatment test for upland field; assay type: in vivo, Poa annua; design: key: 0 = normal development, 5 = all killed; settings: 500 g/ha, 3 weeks, glass house 25° C.
Outline: as §2

wheat [9] = assay: Soil treatment test for upland field; assay type: in vivo; design: key: 0 = normal development, 5 = all killed; settings: 500 g/ha, 3 weeks, glass house 25° C.
Outline: as §2

corn [10] = assay: Soil treatment test for upland field; assay type: in vivo; design: key: 0 = normal development, 5 = all killed; settings: 500 g/ha, 3 weeks, glass house 25° C.
Outline: as §2

sugar beat [11] = assay: Soil treatment test for upland field; assay type: in vivo; design: key: 0 = normal development, 5 = all killed; settings: 500 g/ha, 3 weeks, glass house 25° C.
Outline: as §2

solgum [12] = assay: Soil treatment test for upland field; assay type: in vivo; design: key: 0 = normal development, 5 = all killed; settings: 500 g/ha, 3 weeks, glass house 25° C.
Outline: as §2

soybean [13] = assay: Soil treatment test for upland field; assay type: in vivo; design: key: 0 = normal development, 5 = all killed; settings: 500 g/ha, 3 weeks, glass house 25° C.
Outline: as §2

morning glory [14] = assay: Foliar spread test for upland field; assay type: in vivo, Ipomoea spps.; design: key: 0 = normal development, 5 = all killed (6 ranks vs. untreated); settings: foliar spray, 500 ppm, 3 weeks, glass house 25° C.
Outline: as §1

livid amaranth [15] = assay: Foliar spread test for upland field; assay type: in vivo, Amaranthus lividus; design: key: 0 = normal development, 5 = all killed (6 ranks vs. untreated); settings: foliar spray, 500 ppm, 3 weeks, glass house 25° C.
Outline: as §1

Cyperus serotinus Rottb. = assay: Herbicidal test for paddy field; assay type: in vivo; settings: 500 g/ha, dropwise addition to paddy water at 1.5 leaf stage of barnyard grass; glass house 25° C., 3 weeks; rank 0-5 vs non-treated district
Protocol: (§3) Wagner pots, each having an area of 1/5000 are, were packed with Ube soil (alluvial soil) and planted with seeds or tubers of young rice plant, barnyard grass, bulrush, Cyperus serotinus Rottb., arrowhead and monochoria. Then, the pots were filled with water to a depth of 3 cm.
(§4) Each wettable powder of the desired Compounds (I) shown in Tables 1 to 21, 24, 25, 28 and 29 prepared in accordance with Example 2 was diluted with water containing a surfactant (0.05%) and subjected to dropwise addition treatment by using pipet so that an effective concentration of the compound (I) in each herbicide became 500 g/ha at 1.5 leaf stage of barnyard grass.
(§5) These plants were controlled in a glass house at an average temperature of 25° C. for 3 weeks, and then herbicidal effects thereof were investigated.
(§6) The herbicidal effects are evaluated according to the following 6 ranks as compared with non-treated district. (0: normal development, 1: Less damaged, 2: Slightly damaged, 3: Moderately damaged, 4: Severely damaged, 5: All killed). Incidentally, “-” in the column means not investigated.

common lambsquarters [16] = assay: Soil treatment test for upland field; assay type: in vivo, Chenopodium album; design: key: 0 = normal development, 5 = all killed; settings: 500 g/ha, 3 weeks, glass house 25° C.
Outline: as §2

velvetleaf [17] = assay: Foliar spread test for upland field; assay type: in vivo, Abutilon theophrasti; design: key: 0 = normal development, 5 = all killed (6 ranks vs. untreated); settings: foliar spray, 500 ppm, 3 weeks, glass house 25° C.
Outline: as §1

bulrush = assay: Herbicidal test for paddy field; assay type: in vivo, Scrips juncoides; settings: 500 g/ha, dropwise addition to paddy water at 1.5 leaf stage of barnyard grass; glass house 25° C., 3 weeks; rank 0-5 vs non-treated district
Protocol: as §3, §4, §5, §6

livid amaranth [18] = assay: Soil treatment test for upland field; assay type: in vivo, Amaranthus lividus; design: key: 0 = normal development, 5 = all killed; settings: 500 g/ha, 3 weeks, glass house 25° C.
Outline: as §2

morning glory [19] = assay: Soil treatment test for upland field; assay type: in vivo, Ipomoea spps.; design: key: 0 = normal development, 5 = all killed; settings: 500 g/ha, 3 weeks, glass house 25° C.
Outline: as §2

blackgrass [20] = assay: Foliar spread test for upland field; assay type: in vivo, Alopecurus aegualis; design: key: 0 = normal development, 5 = all killed (6 ranks vs. untreated); settings: foliar spray, 500 ppm, 3 weeks, glass house 25° C.
Outline: as §1

common lambsquarters [21] = assay: Foliar spread test for upland field; assay type: in vivo, Chenopodium album; design: key: 0 = normal development, 5 = all killed (6 ranks vs. untreated); settings: foliar spray, 500 ppm, 3 weeks, glass house 25° C.
Outline: as §1

barnyardgrjass = assay: Foliar spread test for upland field; assay type: in vivo, Eschinochloa crusgalli; design: key: 0 = normal development, 5 = all killed (6 ranks vs. untreated); settings: foliar spray, 500 ppm, 3 weeks, glass house 25° C.
Outline: as §1

blackgrass [22] = assay: Soil treatment test for upland field; assay type: in vivo, Alopecurus aegualis; design: key: 0 = normal development, 5 = all killed; settings: 500 g/ha, 3 weeks, glass house 25° C.
Outline: as §2

green foxtail [23] = assay: Soil treatment test for upland field; assay type: in vivo, Setaria viridis; design: key: 0 = normal development, 5 = all killed; settings: 500 g/ha, 3 weeks, glass house 25° C.
Outline: as §2

green foxtail [24] = assay: Foliar spread test for upland field; assay type: in vivo, Setaria viridis; design: key: 0 = normal development, 5 = all killed (6 ranks vs. untreated); settings: foliar spray, 500 ppm, 3 weeks, glass house 25° C.
Outline: as §1

barnyard grass [25] = assay: Soil treatment test for upland field; assay type: in vivo, Eschinochloa crusgalli; design: key: 0 = normal development, 5 = all killed; settings: 500 g/ha, 3 weeks, glass house 25° C.
Outline: as §2

barnyard grass [26] = assay: Herbicidal test for paddy field; assay type: in vivo, Eschinochloa crusgalli; settings: 500 g/ha, dropwise addition to paddy water at 1.5 leaf stage of barnyard grass; glass house 25° C., 3 weeks; rank 0-5 vs non-treated district
Protocol: as §3, §4, §5, §6

Large crabgrass [27] = assay: Foliar spread test for upland field; assay type: in vivo, Digitaria adscendens; design: key: 0 = normal development, 5 = all killed (6 ranks vs. untreated); settings: foliar spray, 500 ppm, 3 weeks, glass house 25° C.
Outline: as §1

velvetleaf [28] = assay: Soil treatment test for upland field; assay type: in vivo, Abutilon theophrasti; design: key: 0 = normal development, 5 = all killed; settings: 500 g/ha, 3 weeks, glass house 25° C.
Outline: as §2

arrowhead = assay: Herbicidal test for paddy field; assay type: in vivo, Sagittaria pygmaea; settings: 500 g/ha, dropwise addition to paddy water at 1.5 leaf stage of barnyard grass; glass house 25° C., 3 weeks; rank 0-5 vs non-treated district
Protocol: as §3, §4, §5, §6

Xanthium pensylvanicum = assay: Foliar spread test for upland field; assay type: in vivo; design: key: 0 = normal development, 5 = all killed; settings: foliar spray, 500 ppm, 3 weeks, glass house 25° C.
Protocol: as §6
(§7) Wagner pots, each having an area of 1/5000 are, were packed with volcanic ash soil and then each seed of corn, soybean, cotton, wheat, solgum, sugar beat, Large crabgrass, barnyardgrjass, green foxtail, blackgrass, annual bluegrass, common lambsquarters, livid amaranth, velvetleaf, morning glory, Xanthium pensylvanicum and Cassia obtusifolia was planted, covered with soil and grown in a glass house at an average temperature of 25° C. for about 2 weeks.
(§8) Each wettable powder of the desired compounds (I) shown in Tables 1 to 21, 24, 25, 28 and 29 prepared in accordance with Example 2 was diluted to 500 ppm with water containing a surfactant (0.5%) and then uniformly sprayed on the above respective plants.
(§9) After these plants were controlled in a glass house at an average temperature of 25° C. for 3 weeks, the herbicidal effects thereof were investigated.
(§10) The herbicidal effects were evaluated according to the evaluation method described in the above (1).

Cassia obtusifolia = assay: Foliar spread test for upland field; assay type: in vivo; design: key: 0 = normal development, 5 = all killed; settings: foliar spray, 500 ppm, 3 weeks, glass house 25° C.
Protocol: as §6, §7, §8, §9, §10

Row | SMILES | Effects Wheat (wheat [1]) | Effects Corn (corn [2]) | Effects Sugar beat (sugar beat [3]) | Effects Solgum (solgum [4]) | Effects Sotton (cotton) | Effects Soybean (soybean [5]) | Effects Annual bluegrass (annual bluegrass [6]) | Effects Large crabgrass (Large crabgrass [7]) | Effects Annual bluegrass (annual bluegrass [8]) | Effects Morning glory (morning glory [14]) | Effects Livid amaranth (livid amaranth [15]) | Effects Cyperus serotinus Rottb. (Cyperus serotinus Rottb.) | Effects Velvetleaf (velvetleaf [17]) | Effects Bulrush (bulrush) | Effects Blackgrass (blackgrass [20]) | Effects Common lambsquarters (common lambsquarters [21]) | Effects Barnyardgrass (barnyardgrjass) | Effects Green foxtail (green foxtail [24]) | Effects Barnyardgrass (barnyard grass [26]) | Effects Large crabgrass (Large crabgrass [27]) | other results
1 | CCC(=Cc1cccc(C(F)(F)F)c1)c1nc2cc(C(F)(F)F)ccc2o1 [I-c-86] | 2 | 3 | 4 | 2 | 4 | 5 | 4 | 5 | 5 | 5 | 5 | 3 | 3 | 4 | 3 | 5 | 2 | 4 | 5 | 4 | Effects Wheat (wheat [9]): 0; Effects Corn (corn [10]): 1; Effects Sugar beat (sugar beat [11]): 5; Effects Solgum (solgum [12]): 1; Effects Soybean (soybean [13]): 0; Effects Common lambsquarters (common lambsquarters [16]): 5; Effects Livid amaranth (livid amaranth [18]): 5; Effects Morning glory (morning glory [19]): 5; Effects Blackgrass (blackgrass [22]): 5; Effects Green foxtail (green foxtail [23]): 5; Effects Barnyardgrass (barnyard grass [25]): 5; Effects Velvetleaf (velvetleaf [28]): 5
2 | CCC(=Cc1cccc(C(F)(F)F)c1)c1nc2cc(F)c(F)cc2o1 [I-c-111] | 3 | 3 | 4 | 4 | 4 | 5 | 4 | 5 | 5 | 5 | 5 | 1 | 3 | 4 | 4 | 5 | 3 | 4 | 5 | 4 | Effects Wheat (wheat [9]): 5; Effects Corn (corn [10]): 2; Effects Sugar beat (sugar beat [11]): 5; Effects Solgum (solgum [12]): 3; Effects Soybean (soybean [13]): 5; Effects Common lambsquarters (common lambsquarters [16]): 5; Effects Livid amaranth (livid amaranth [18]): 5; Effects Morning glory (morning glory [19]): 4; Effects Blackgrass (blackgrass [22]): 5; Effects Green foxtail (green foxtail [23]): 5; Effects Barnyardgrass (barnyard grass [25]): 5; Effects Velvetleaf (velvetleaf [28]): 5
3 | CCC(=Cc1cccc(C(F)(F)F)c1)c1nc2cc(C#N)c(F)cc2o1 [I-c-137] | 2 | 3 | 4 | 2 | 4 | 5 | 4 | 5 | 5 | 5 | 5 | 2 | 4 | 4 | 3 | 5 | 3 | 4 | 4 | 4 | Effects Wheat (wheat [9]): 1; Effects Corn (corn [10]): 2; Effects Sugar beat (sugar beat [11]): 5; Effects Solgum (solgum [12]): 2; Effects Soybean (soybean [13]): 3; Effects Common lambsquarters (common lambsquarters [16]): 5; Effects Livid amaranth (livid amaranth [18]): 5; Effects Morning glory (morning glory [19]): 5; Effects Blackgrass (blackgrass [22]): 5; Effects Green foxtail (green foxtail [23]): 5; Effects Barnyardgrass (barnyard grass [25]): 5; Effects Velvetleaf (velvetleaf [28]): 5
4 | CCC(=Cc1cccc(C(F)(F)F)c1)c1nc2cc(C#N)ccc2o1 [I-c-81] | 2 | 3 | 4 | 3 | 4 | 5 | 4 | 5 | 5 | 5 | 5 | 4 | 3 | 5 | 3 | 5 | 3 | 4 | 5 | 4 | Effects Wheat (wheat [9]): 3; Effects Corn (corn [10]): 2; Effects Sugar beat (sugar beat [11]): 5; Effects Solgum (solgum [12]): 2; Effects Soybean (soybean [13]): 3; Effects Common lambsquarters (common lambsquarters [16]): 5; Effects Livid amaranth (livid amaranth [18]): 5; Effects Morning glory (morning glory [19]): 5; Effects Blackgrass (blackgrass [22]): 5; Effects Green foxtail (green foxtail [23]): 5; Effects Barnyardgrass (barnyard grass [25]): 5; Effects Velvetleaf (velvetleaf [28]): 5
5 | N#Cc1ccc2oc(-c3cccc(Oc4cccc(C(F)(F)F)c4)n3)nc2c1 [I-a-18] | 1 | 1 | 4 | 1 | 4 | 3 | 2 | – | – | 5 | 5 | 0 | 4 | 0 | 1 | 4 | 1 | 5 | 3 | 2 | Effects Arrowhead (arrowhead): 0; Effects Common Cocklebur (Xanthium pensylvanicum): 4; Effects Sicklepod (Cassia obtusifolia): 5
